Test results reported in US8071336B2, “Antibody-based therapeutics with enhanced ADCC activity” (Genzyme Corporation, priority 2005, dated 2011).

Assays:
[1] = after removal of most of the galactose residues; cited from earlier work
[2] = after removal of most of the galactose residues; cited from earlier work; remark: listed apart in the source
[3] = system: Hybridoma cells expressing TEM mAb A; experiment: N-glycans of TEM mAb A from inhibitor-treated hybridoma cells (MALDI-TOF MS); format: cell-based; settings: 20 μg/ml mannostatin A, 0.5 mM NB-DNJ, or 2 μg/ml kifunensine at days 0 and 2
Procedure: Hybridoma cells expressing TEM mAb A, an antibody against a tumor vascular associated antigen, were grown in medium containing 1% fetal bovine serum with low IgG (Invitrogen Corp.), 5 μg/ml bovine insulin, 5 μg/ml human transferrin, 0.01 mM ethanolamine and 25 nM sodium selenite. Cells were treated once with the following inhibitors: 20 μg/ml mannostatin A, and 0.5 mM NB-DNJ for 4 days; and twice with 2 μg/ml kifunensine at days 0 and 2; or cultured without inhibitors (“control”).
N-linked glycans from antibodies purified as described in Example 1 were released with PNGase F. After filtration through 10 kDa filters, the filtrates were treated with Dowex AG-50 (H^+), AG501, and […] sequentially. Aliquots of samples were applied to a target, followed by sDHB matrix. The MALDI-TOF mass spectra were acquired using a Voyager-DE PRO Biospectrometry Workstation (Applied Biosystems, Foster City, Calif., USA) in the positive-ion and reflective mode.

[4] = system: CHO cell clone expressing TEM mAb A; experiment: Titration of kifunensine concentration, N-glycans of TEM mAb A (MALDI-TOF MS); format: cell-based, Chinese hamster; settings: for glycan structures of the expressed antibody: 11 days
Procedure: To investigate the impact of mixed oligomannose and complex-type glycans on antibody function, cells expressing TEM mAb A were treated with various amounts of kifunensine. In the first experiment, a CHO cell clone expressing TEM mAb A was treated with 0, 4, 20, 100, 500 and 2500 ng/ml of kifunensine for 11 days. The medium was harvested, and the antibody was purified using a protein A column. Fractions containing protein peaks were pooled and dialyzed into PBS. A second titration experiment was performed with a narrower range of kifunensine concentration, specifically, from 20 to 100 ng/ml. After treatment for 11 days, 50 ml of medium from each treatment condition was harvested, and the antibody was purified. Peak-containing fractions were pooled, buffer-exchanged into PBS using Centricon® filters with repeated centrifugation. Aliquots of TEM mAb A antibody samples were applied to a 4-12% NuPAGE and stained with Coomassie blue to confirm purity. The amount of fucosylated and non-fucosylated glycans in antibodies from each kifunensine treatment in the second titration experiment was estimated by calculating the area of each individual glycan peak in MALDI-TOF MS spectra.

[5] = system: CHO cells expressing TEM mAb B; experiment: Batch cultures of CHO cells expressing TEM mAb B treated with kifunensine (shaker flasks); format: cell-based, Chinese hamster
Procedure: The production of TEM mAb B from batch cultures treated with various amounts of kifunensine or untreated was evaluated. CHO cells in shaker flasks were treated with 0, 0.5, 1, 1.5, or 2 μg/ml in a single or three additions (4 days apart) and cultured for 11 days. Cell viability (using trypan blue) and cell counts were assessed at least every other day.

Campath®: a humanized mAb IgG1
ADCC [1]: no effect on ADCC
complement lysis activity [2]: reduced complement lysis activity

CCCCN1C[C@H](O)[C@@H](O)[C@H](O)[C@H]1CO [NB-DNJ, N-butyl-DNJ]
effect on glycosylation of the expressed antibody [3]: significant amounts of Glc1Man9GlcGNAc2 (Man9Glc)

O=C1N[C@@H]2[C@@H](O)[C@@H](O)[C@H](O)[C@@H](CO)N2C1=O [kifunensine]
glycan structures of the expressed antibody ([4]; 20 ng/ml kifunensine): only a small amount of oligomannose structures (Man5/Man6)
non-fucosylated glycans of the expressed antibody ([4]; 60 ng/ml or higher kifunensine, estimated from MALDI-TOF MS peak areas): > 80%
glycan structures of the expressed antibody ([4]; 100 ng/ml kifunensine): complete oligomannose structures
Xvmax (viable cells at day of peak cell density) ([5]; 0.5 μg/ml kif sup. 3x (three additions), 11 days): 3.5 ×10^6 cells
Xvmax (viable cells at day of peak cell density) ([5]; 0.5 μg/ml kif, single addition, 11 days): 3.5 ×10^6 cells
Xvmax (viable cells at day of peak cell density) ([5]; 1 μg/ml kif sup. 3x (three additions), 11 days): 1.6 ×10^6 cells
Xvmax (viable cells at day of peak cell density) ([5]; 1 μg/ml kif, single addition, 11 days): 2.7 ×10^6 cells
Xvmax (viable cells at day of peak cell density) ([5]; 1.5 μg/ml kif sup. 3x (three additions), 11 days): 1.6 ×10^6 cells
Xvmax (viable cells at day of peak cell density) ([5]; 1.5 μg/ml kif, single addition, 11 days): 3.8 ×10^6 cells
Xvmax (viable cells at day of peak cell density) ([5]; 2 μg/ml kif sup. 3x (three additions), 11 days): 1.7 ×10^6 cells
Xvmax (viable cells at day of peak cell density) ([5]; 2 μg/ml kif, single addition, 11 days): 2.1 ×10^6 cells
cell viability (trypan blue) ([5]; FIG. 10A, 0 to 2 μg/ml kifunensine, 1 or 3 additions, 11 days): comparable
cell density ([5]; FIG. 10B, kifunensine-treated vs untreated cells): lower
glycan structures of the expressed antibody ([5]; single kifunensine treatment at 0.5 μg/ml): enough to result in the production of oligomannose-type structures
cell density ([5]; three additions of kifunensine vs untreated control or single treatment): much lower cell density
effect on glycosylation of the expressed antibody [3]: more effective in blocking the glycosylation to complex-type structures than NB-DNJ

CS[C@@H]1[C@@H](N)[C@@H](O)[C@@H](O)[C@H]1O [mannostatin A]
effect on glycosylation of the expressed antibody [3]: No alteration in glycosylation
